# Test results taken from patent US9932320B2 (BRISTOL-MYERS SQUIBB COMPANY, priority 2014, dated 2018).
# Molecular target: T1, AAK1 (GST-Xa-hAAK1) (Homo sapiens, UniProt Q2M2I8)
# T1 construct: made in house
# Assay: AAK1 Kinase Assay (Caliper LabChip, fluoresceinated peptide substrate)
# Type: biochemical
# Conditions: AAK1 functional potency; class symbols; read-out: IC50 (nM), functional potency as IC50 ranges
# Experimental: The assays were performed in U-bottom 384-well plates. The final assay volume was 30 μl prepared from 15 μl additions of enzyme and substrates (fluoresceinated peptide (5-FAM)-Aha-KEEQSQITSQVTGQIGWR-NH2 and ATP) and test compounds in assay buffer (10 mM Tris-HCL pH 7.4, 10 mM MgCl2, 0.01% Tween-20 and 1.0 mM DTT). The reactions were initiated by the combination of bacterially expressed, GST-Xa-hAAK1 with substrates and test compounds. The reactions were incubated at room temperature for 3 hours and terminated by adding 60 μl of 35 mM EDTA buffer to each sample. The reactions were analyzed on the Caliper LabChip 3000 (Caliper, Hopkinton, Mass.) by electrophoretic separation of the fluorescent substrate and phosphorylated product. Inhibition data were calculated by comparison to EDTA quenched control reactions for 100% inhibition and vehicle-only reactions for 0% inhibition. The final concentration of reagents in the assays are ATP, 22 μM; (5-FAM)-Aha-KEEQSQITSQVTGQIGWR-NH2, 1.5 μM; GST-Xa-hAAK1, 3.5 nM; and DMSO, 1.6%. Dose response curves were generated to determine the concentration required inhibiting 50% of kinase activity (IC50). Compounds were dissolved at 10 mM in dimethylsulfoxide (DMSO) and evaluated at eleven concentrations. IC50 values were derived by non-linear regression analysis.
# T1 sequence (Q2M2I8 whole entry): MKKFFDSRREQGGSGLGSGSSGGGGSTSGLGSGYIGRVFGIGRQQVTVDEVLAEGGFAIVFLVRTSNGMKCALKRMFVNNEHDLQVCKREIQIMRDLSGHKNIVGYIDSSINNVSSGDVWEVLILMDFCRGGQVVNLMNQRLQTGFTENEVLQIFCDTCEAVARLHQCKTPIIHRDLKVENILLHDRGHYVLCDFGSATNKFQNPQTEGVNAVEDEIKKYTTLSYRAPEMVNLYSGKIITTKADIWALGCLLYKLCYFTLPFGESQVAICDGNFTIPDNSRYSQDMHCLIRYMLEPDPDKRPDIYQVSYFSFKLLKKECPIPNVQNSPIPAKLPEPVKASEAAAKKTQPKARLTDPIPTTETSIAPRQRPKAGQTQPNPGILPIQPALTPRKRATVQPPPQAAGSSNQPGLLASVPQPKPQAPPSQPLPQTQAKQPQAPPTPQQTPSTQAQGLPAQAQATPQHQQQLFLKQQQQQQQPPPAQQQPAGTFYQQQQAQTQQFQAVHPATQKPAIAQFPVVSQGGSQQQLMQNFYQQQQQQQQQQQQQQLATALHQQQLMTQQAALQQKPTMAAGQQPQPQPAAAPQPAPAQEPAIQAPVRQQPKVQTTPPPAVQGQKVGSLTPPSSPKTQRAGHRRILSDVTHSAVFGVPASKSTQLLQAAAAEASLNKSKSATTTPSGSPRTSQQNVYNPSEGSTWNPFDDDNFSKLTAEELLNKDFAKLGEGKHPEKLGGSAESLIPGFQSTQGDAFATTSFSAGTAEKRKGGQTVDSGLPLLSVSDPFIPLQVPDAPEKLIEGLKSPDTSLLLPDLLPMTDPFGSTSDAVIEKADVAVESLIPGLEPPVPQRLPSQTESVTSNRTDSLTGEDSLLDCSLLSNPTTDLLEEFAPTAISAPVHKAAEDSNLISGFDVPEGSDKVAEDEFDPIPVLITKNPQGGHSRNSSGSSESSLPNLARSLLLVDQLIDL
row,Compound,IC50 [nM]
1,"CC(C)C[C@H](N)c1cc(C#N)c2cc(-c3ccncc3)ccc2n1 (single isomer, unassigned) [Example 8]",1 to 10
2,"COc1cc2nc(C(N)CC(C)C)cc(C#N)c2cc1-c1cnco1 (single isomer, unassigned; (-)) [Example 12, (−)-2-(1-Amino-3-methylbutyl)-7-methoxy-6-(oxazol-5-yl)quinoline-4-carbonitrile]",11 to 100
3,"CC(C)CCc1cc(O)c2cc(-c3ccncc3)ccc2n1 [Example 1, 2-Isopentyl-6-(pyridin-4-yl)quinolin-4-ol]",11 to 100
4,"COc1cc(CCC(C)C)nc2ccc(-c3ccncc3)cc12 [Example 2, 2-Isopentyl-4-methoxy-6-(pyridin-4-yl)quinoline]",101 to 2500
5,"CC(C)CCc1cc(Br)c2cc(-c3ccncc3)ccc2n1 [Example 3, 4-Bromo-2-isopentyl-6-(pyridin-4-yl)quinoline]",11 to 100
6,"CC(C)CCc1ccc2cc(-c3ccncc3)ccc2n1 [Example 4, 2-Isopentyl-6-(pyridin-4-yl)quinoline]",101 to 2500
7,"CC(C)CCc1cc(N(C)C)c2cc(-c3ccncc3)ccc2n1 [Example 5, 2-Isopentyl-N,N-dimethyl-6-(pyridin-4-yl)quinolin-4-amine]",11 to 100
8,"CC(C)CCc1cc(C#N)c2cc(-c3ccncc3)ccc2n1 [Example 6, 2-Isopentyl-6-(pyridin-4-yl)quinoline-4-carbonitrile]",11 to 100
9,"COc1cc2nc(CCC(C)C)cc(O)c2cc1-c1cnco1 [Example 9, 2-Isopentyl-7-methoxy-6-(oxazol-5-yl)quinolin-4-ol]",11 to 100
10,"COc1cc2nc(CCC(C)C)cc(Br)c2cc1-c1cnco1 [Example 10, 5-(4-Bromo-2-isopentyl-7-methoxyquinolin-6-yl)oxazole]",11 to 100
11,"COc1cc2nc(CCC(C)C)cc(C#N)c2cc1-c1cnco1 [Example 11, 2-Isopentyl-7-methoxy-6-(oxazol-5-yl)quinoline-4-carbonitrile]",11 to 100
12,"Cc1nc2ccc(-c3ccncc3)cc2c(O)c1CC(C)C [Example 14, 3-Isobutyl-2-methyl-6-(pyridin-4-yl)quinolin-4-ol]",101 to 2500
13,"CC(C)Cc1cnc2ccc(-c3ccncc3)cc2c1O [Example 15, 3-Isobutyl-6-(pyridin-4-yl)quinolin-4-ol]",101 to 2500
14,"CC(C)CCc1nc2ccc(-c3ccncc3)cc2c(O)c1Br [Example 16, 3-Bromo-2-isopentyl-6-(pyridin-4-yl)quinolin-4-ol]",11 to 100
15,"CC(C)CCc1nc2ccc(-c3ccncc3)cc2cc1C(N)=O [Example 17, 2-Isopentyl-6-(pyridin-4-yl)quinoline-3-carboxamide]",101 to 2500
16,"CC(C)CCc1nc2ccc(-c3ccncc3)cc2cc1C#N [Example 18, 2-Isopentyl-6-(pyridin-4-yl)quinoline-3-carbonitrile]",101 to 2500
17,"CC(C)CC(=O)c1ccc2cc(-c3ccncc3)ccc2n1 [Example 19, 3-methyl-1-(6-(pyridin-4-yl)quinolin-2-yl)butan-1-one]",101 to 2500

# Further lines, results first:
row,IC50 [nM],Compound
1,11 to 100,"CCc1cc(C(N)CC(C)C)nc2ccc(-c3ccncc3)cc12 (racemic) [Example 43, 1-(4-ethyl-6-(pyridin-4-yl)quinolin-2-yl)-3-methylbutan-1-amine]"
2,1 to 10,"CC(=O)Nc1cc(-c2ccc3nc(C(N)CC(C)C)ccc3c2)ccn1 (single isomer, unassigned) [Example 33, N-(4-(2-(1-amino-3-methylbutyl)quinolin-6-yl)pyridin-2-yl)acetamide]"
3,1 to 10,"CC(=O)Nc1cc(-c2ccc3nc(C(N)CC(C)C)ccc3c2)ccn1 (single isomer, unassigned) [Example 34, N-(4-(2-(1-amino-3-methylbutyl)quinolin-6-yl)pyridin-2-yl)acetamide]"
4,101 to 2500,"NC(=O)c1cc(C(N)C2CCCCC2)nc2ccc(-c3ccncc3)cc12 (single isomer, unassigned) [Example 40, 2-(amino(cyclohexyl)methyl)-6-(pyridin-4-yl)quinoline-4-carboxamide]"
5,101 to 2500,"CC(=O)Nc1cc(-c2ccc3nc(C(N)CC(C)C)ccc3c2)c2ccccc2n1 (single isomer, unassigned) [Example 46, N-(2′-(1-amino-3-methylbutyl)-4,6′-biquinolin-2-yl)acetamide]"
6,101 to 2500,"CC(C)CC(N)c1ccc2cc(-c3cc(N)nc4ccccc34)ccc2n1 (single isomer, unassigned) [Example 48, 2′-(1-amino-3-methylbutyl)-4,6′-biquinolin-2-amine]"
7,101 to 2500,"CC(C)CC(N)c1ccc2cc(-c3cc(N)nc4ccccc34)ccc2n1 (single isomer, unassigned) [Example 49, 2′-(1-amino-3-methylbutyl)-4,6′-biquinolin-2-amine]"
8,11 to 100,"CC(C)CC(N)c1ccc2cc(-c3ccncc3)ccc2n1 (single isomer, unassigned; (+)) [Example 21, (+)-3-methyl-1-(6-(pyridin-4-yl)quinolin-2-yl)butan-1-amine]"
9,101 to 2500,"COc1cnccc1-c1ccc2nc(C(N)CC(C)C)ccc2c1 (single isomer, unassigned; (+)) [Example 22, (+)-1-(6-(3-methoxypyridin-4-yl)quinolin-2-yl)-3-methylbutan-1-amine]"
10,11 to 100,"CC(C)CC(N)c1ccc2cc(-c3ccncc3)ccc2n1 (single isomer, unassigned; (-)) [Example 20, (−)-3-methyl-1-(6-(pyridin-4-yl)quinolin-2-yl)butan-1-amine]"
11,101 to 2500,"COc1cnccc1-c1ccc2nc(C(N)CC(C)C)ccc2c1 (single isomer, unassigned; (-)) [Example 23, (−)-1-(6-(3-methoxypyridin-4-yl)quinolin-2-yl)-3-methylbutan-1-amine]"
12,101 to 2500,COc1cc(-c2ccc3nc(C(N)CC(C)C)ccc3c2)ccn1 (stereo not drawn) [Example 24]
13,1 to 10,"CC(C)CC(N)c1ccc2cc(-c3ccnc4[nH]ccc34)ccc2n1 (stereo not drawn) [Example 25, 1-(6-(1H-pyrrolo[2,3-b]pyridin-4-yl)quinolin-2-yl)-3-methylbutan-1-amine]"
14,11 to 100,"CC(C)CC(N)c1ccc2cc(-c3ccnc4ccccc34)ccc2n1 (stereo not drawn) [Example 26, 1-([4,6′-biquinolin]-2′-yl)-3-methylbutan-1-amine]"
15,101 to 2500,"CC(C)CC(N)c1ccc2cc(-c3ccc4cnccc4c3)ccc2n1 (stereo not drawn) [Example 27, 1-(6-(isoquinolin-6-yl)quinolin-2-yl)-3-methylbutan-1-amine]"
16,11 to 100,"CC(C)CC(N)c1ccc2cc(-c3ccnc(N(C)C)n3)ccc2n1 (stereo not drawn) [Example 28, 4-(2-(1-amino-3-methylbutyl)quinolin-6-yl)-N,N-dimethylpyrimidin-2-amine]"
17,1 to 10,"CC(C)CC(N)c1ccc2cc(-c3ccnc(N)c3)ccc2n1 (stereo not drawn) [Example 29, 4-(2-(1-amino-3-methylbutyl)quinolin-6-yl)pyridin-2-amine]"
18,101 to 2500,"CC(=O)Nc1cc(-c2ccc3nc(C(=O)CC(C)C)ccc3c2)ccn1 [Example 30, N-(4-(2-(3-methylbutanoyl)quinolin-6-yl)pyridin-2-yl)acetamide]"
19,11 to 100,"CC(C)CCc1cc(=S)c2cc(-c3ccncc3)ccc2[nH]1 [Example 31, 2-isopentyl-6-(pyridin-4-yl)quinoline-4(1H)-thione]"
20,101 to 2500,"CC(C)CC(OCC(F)(F)F)c1ccc2cc(-c3ccncc3)ccc2n1 (stereo not drawn) [Example 32, 2-(3-methyl-1-(2,2,2-trifluoroethoxy)butyl)-6-(pyridin-4-yl)quinoline]"
21,11 to 100,"CC(C)CC(N)c1ccc2cc(-c3ccnc(NC(=O)c4cccc(F)c4)c3)ccc2n1 (stereo not drawn) [Example 35, N-(4-(2-(1-amino-3-methylbutyl)quinolin-6-yl)pyridin-2-yl)-3-fluorobenzamide]"
22,1 to 10,CC(=O)Nc1cc(-c2ccc3nc(C(N)C4CCCCC4)ccc3c2)ccn1 (stereo not drawn) [Example 36]
23,1 to 10,"CC(C)CC(N)c1cc(-c2nnn[nH]2)c2cc(-c3ccncc3)ccc2n1 (stereo not drawn) [Example 37, 3-methyl-1-(6-(pyridin-4-yl)-4-(1H-tetrazol-5-yl)quinolin-2-yl)butan-1-amine]"
24,11 to 100,"CC(C)CC(N)c1ccc2cc(-c3ccnc(NC4CC4)c3)ccc2n1 (stereo not drawn) [Example 38, 4-(2-(1-amino-3-methylbutyl)quinolin-6-yl)-N-cyclopropylpyridin-2-amine]"

# Same assay, conditions: AAK1 functional potency; numeric values; read-out: IC50 (nM), functional potency
row,Compound,IC50 [nM]
1,"CC(C)C[C@@H](N)c1cc(C#N)c2cc(-c3ccncc3)ccc2n1 (single isomer, unassigned) [Example 7]",12
2,"COc1cc2nc(C(N)CC(C)C)cc(C#N)c2cc1-c1cnco1 (single isomer, unassigned; (+)) [Example 13, (+)-2-(1-Amino-3-methylbutyl)-7-methoxy-6-(oxazol-5-yl)quinoline-4-carbonitrile]",4.1

# Continued, values first:
row,IC50 [nM],Compound
1,54,"NC(=O)c1cc(C(N)C2CCCCC2)nc2ccc(-c3ccncc3)cc12 (single isomer, unassigned) [Example 39, 2-(amino(cyclohexyl)methyl)-6-(pyridin-4-yl)quinoline-4-carboxamide]"
2,1200,"CC(=O)Nc1cc(-c2ccc3nc(C(N)CC(C)C)ccc3c2)c2ccccc2n1 (single isomer, unassigned) [Example 47, N-(2′-(1-amino-3-methylbutyl)-4,6′-biquinolin-2-yl)acetamide]"
